The source of these data is PMC3764137, “Sulphamoylated 2-Methoxyestradiol Analogues Induce Apoptosis in Adenocarcinoma Cell Lines” (PLoS ONE, 2013).

Format in all cases: cell-based, human
One data set concerns caspase-8. The experiment in a line: FLICE/caspase 8 colorimetric assay. Particulars: 0.5 μM, 24 h. The method, then: (§1) Possible activation of caspase 3, -6 and -8 was investigated by means of caspase 3, caspase 6 and FLICE/caspase 8 colorimetric kits, respectively. Cells (1,000,000) were seeded with an overnight attachment policy. After 24 h of exposure to 0.5 μM of the sulphamoylated 2ME2 analogues, cells were detached with trypsin and centrifuged at 13,000× g. Cells (500,000) were resuspended in 50 µl of chilled cell lysis buffer and incubated on ice for 10 min. Cells were centrifuged at 10,000×g for a min. Supernatant was transferred to a fresh tube and put on ice. After determination of the protein concentration using the bicinchoninic acid (BCA) protein assay (Thermo Fisher Scientific, Johannesburg, South Africa), 100 µg protein/50 µl cell lysis buffer was mixed with 50 µl 2X reaction buffer (containing 10 mM Dithiothreitol (DTT)). Ac-Asp-Glu-Val-Asp-p-nitroanilide (Ac-DEVD-pNA) (5 µl of 4 mM) (caspase-3-specific substrate), or 5 µl 4 mM […] (Ac-VEID-pNA) (caspase-6-specific substrate), or 5 µl 4 mM Ac-Ile-Glu-Thr-Asp-p-nitroanilide (Ac-IETD-pNA) (caspase-8-specific substrate) was added and the mixture was incubated at 37°C for 120 min (200 µM final concentration). Absorbance was determined at 405 nm on the ELx800 Universal Microplate Reader available from Bio-Tek Instruments Inc. (Vermont, United States of America).

Data set [1] deals with HeLa cells. The experiment in a line: Cytotoxicity: lactate dehydrogenase assay. To be noted: 24 h, compared to vehicle-treated cells. As to the method: Lactate dehydrogenase (LDH) is a soluble cytosolic enzyme that catalyzes the interconversion of lactate and pyruvate. Cells release LDH during injury or cell damage, following the loss of membrane integrity consequential from either apoptosis or necrosis. LDH activity can therefore be used as an indicator of cell membrane integrity and serves as a general mean to assess for cytotoxicity resulting from exposure to chemical compounds. Cells were seeded in 96 well plates at a cell density of 5,000 cells per well (incubated at 37°C at 5% CO2). After 24 h, cells were exposed to 0.1–25 μM sulphamoylated 2ME2 analogues including vehicle-treated controls and incubated for 24 h at 37°C. Subsequently, the 200 μl medium was transferred and centrifuged at 5,000 rpm for 10 min. Supernatant (10 μl) was then transferred to an optimally clear 96 well plate. LDH reaction mix (100 μl mixed according to the supplier's manual instructions) was added to the medium. After 90 min incubation at room temperature, the absorbance was read at 460 nm (reference wavelength of 630 nm) with an ELx800 Universal Microplate Reader from Bio-Tek Instruments Inc. (Vermont, United States of America).

Data set [2] has as its system HeLa cells. Description: Cell number determination by crystal violet staining. Particulars: for cell growth: 24 h; for concentration that significantly inhibits HeLa proliferation: 24 h of exposure. As to the method:
Crystal violet is a method used to determine the number of cells by staining the deoxyribonucleic acid (DNA). Gillies et al. (1986) used crystal violet to quantify cell number in monolayer cultures as a function of the absorbance of the dye taken up by the cells. A dose-dependent study was chosen with a concentration range of 0.1–25 μM since it was previously observed in our laboratory that this concentration series exerts antiproliferative activity in HeLa cells. Exponentially growing HeLa cells were seeded in 96 well tissue culture plates at a cell density of 5,000 cells per well. Cells were incubated at 37°C in a humidified atmosphere containing 5% CO2 for 24 h to allow for attachment. To establish the starting number of cells, a baseline determination was conducted before exposure. Subsequently, the medium was discarded and cells were exposed to the sulphamoylated 2ME2 analogues at a concentration series of 0.1–25 μM for the 24 h at 37°C. Vehicle-treated controls were also included. Cells were fixed with 100 µl of 1% gluteraldehyde (incubation for 15 min at room temperature). Gluteraldehyde was discarded and cells were stained using 100 µl 0.1% crystal violet (incubated at room temperature for 30 min). Excedent crystal violet was discarded and the 96 well plate was submersed under running water. Cells were solubilized using 200 µl 0.2% Triton X-100 and incubated at room temperature for 30 min. Solution (100 µl) was transferred to a new microtitre plate. Afterwards, the absorbance was determined at 570 nm using an ELx800 Universal Microplate Reader available from Bio-Tek Instruments Inc. (Vermont, United States of America).

A further data set deals with caspase-6. Description: Caspase 6 colorimetric assay. To be noted: 0.5 μM, 24 h. As to the method:
as §1

Another data set relates to caspase 3. The experiment in a line: Caspase 3 colorimetric assay in MDA-MB-231 cells. Particulars: MDA-MB-231, 0.5 μM, 24 h. The method, then:
as §1

In data set [3] the test system is HeLa cells. Description: Mitochondrial membrane potential assay (Mitocapture, flow cytometry). Particulars: 0.5 μM analogues (2-methoxyestradiol-bis-sulphamate 0.55 μM), 24 h. The method, then:
Cells (500,000) were seeded with an overnight attachment policy. After 24 h of exposure to 0.5 μM of the sulphamoylated 2ME2 analogues, cells were detached using trypsin and centrifuged at 13,000×g.
Background: Flow cytometry measures light scatter and fluorescence of single cells or particles in a stream.

Where [4] appears, read: 0.5 µM, compared to vehicle-treated cells.

Consider `CCc1cc2c(cc1OS(N)(=O)=O)CC[C@@H]1C2CC[C@]2(C)[C@@H](OS(N)(=O)=O)CC[C@@H]12` (stereo partly drawn) [EMBS, (8R, 13S, 14S, 17S)-2-ethyl-13-methyl-7,8,9, 11, 12,13, 14, 15, 16, 17-decahydro-6H-cyclopenta [a] phenanthrane-3, 17-diyl bis (sulphamate)], for which the “caspase-8 activity increase compared to vehicle-treated cells” value with caspase-8 is on record as 2.6 fold. Further, in the data set on HeLa cells [1], the “LDH levels / LDH release” value is on record as “No statistically significant increase in LDH levels”. The cell growth in the data set on HeLa cells [2] (0.1 µM) is 92.32%; in the data set on HeLa cells [2] (setting [4]) it was 40.01%; in the data set on HeLa cells [2] (5 µM and 10 µM) it was “slight decrease in cell growth”. Besides, in the data set on HeLa cells [2], the “concentration that significantly inhibits HeLa proliferation” value was 0.5 µM. For the same molecule, the “caspase-6 activity ratio compared to vehicle-treated cells” value in the data set on caspase-6 is 3.1.
Turning to `CCc1cc2c(cc1OS(N)(=O)=O)CC[C@@H]1[C@@H]2CC[C@]2(C)C(=O)C=C[C@@H]12` [ESE-15-one, 2-Ethyl-3-O-sulphamoyl-estra-1,3,5 (10) 15-tetraene-3-ol-17one], in the data set with caspase 3, the “caspase 3 activity” value was “most affected”. In the data set on caspase-8, the “caspase-8 activity increase compared to vehicle-treated cells” value came out at 1.7 fold. Moreover, the “LDH levels / LDH release” value in the data set on HeLa cells [1] is “No statistically significant increase in LDH levels”. Besides, the cell growth in the data set with HeLa cells [2] (0.1 µM) was 80.31%; in the data set on HeLa cells [2] (setting [4]) it was 40.87%; in the data set with HeLa cells [2] (5 µM and 10 µM) it was “slight decrease in cell growth”. The “concentration that significantly inhibits HeLa proliferation” value with HeLa cells [2] is 0.5 µM. In addition, the “cells with reduced mitochondrial potential” value in the data set with HeLa cells [3] amounted to 72%.
